Patent US20230382862A1, “ERG ONCOGENE INHIBITORS” (The Henry M. Jackson Foundation for the Advancement of …, priority 2020, published 2023)

Assays:
RIOK2 = biological target: T1, RIOK2 (Homo sapiens, UniProt Q9BVS4); assay: RIOK2 levels in endothelial-derived primary cells (HUVEC); assay type: cell-based; conditions: within effective concentration range observed in VCaP, data not shown
T1 construct: endogenous in cells; host or cells: HUVEC primary endothelial cells (ATCC)
Experimental: (§1) TMPRSS2-ERG fusion positive ERG oncoprotein expressing prostate cancer cell line VCaP, was obtained from the American Tissue Culture Collection (ATCC; Manassas, Va.). The cells were grown in ATCC-recommended cell culture media under cell growth promoting conditions as recommended by the supplier (DMEM media; Gibco, Grand island, NY) supplemented with 10% fetal bovine serum (ATCC; Manassas, Va.). Normal primary endothelial cells, HUVEC-human umbilical vein endothelial cells, were also obtained from ATCC (Endothelial cell media; Cell biologics, Chicago, Ill.) supplemented with 10% FBS) as recommended by the supplier. The passage number of cell lines used in this study ranges from 1 to 6.
(§2) ERG protein is naturally expressed in endothelial cells.

VCaP cells = assay: VCaP cell growth inhibition / cell viability (Cell Titer-Glo); assay type: cell-based; conditions: Homo sapiens, 96 h
Experimental: TMPRSS2-ERG fusion positive ERG oncoprotein expressing prostate cancer cell line VCaP, was obtained from the American Tissue Culture Collection (ATCC; Manassas, Va.). The cells were grown in ATCC-recommended cell culture media under cell growth promoting conditions as recommended by the supplier (DMEM media; Gibco, Grand island, NY) supplemented with 10% fetal bovine serum (ATCC; Manassas, Va.). […] The passage number of cell lines used in this study ranges from 1 to 6.
48 hours following plating of cells, the appropriate test compound is added to each well of the tissue culture dish at concentrations (0, 0.001, 0.005, 0.01, 0.05, 0.10, 0.15, 0.2, 0.25, 0.3, 0.35, 0.4) μM/per well). The medium was replenished every 24 hours with fresh growth medium containing the same concentration of the same test compound for indicated period of the cell growth inhibition assay for 96 hours. At the end of the treatment the cells were analyzed for viability by labeling for ATPase activity. Cell growth were calculated by measuring bioluminescence using Cell Glow ATPase assay with Cell Titer-Glo luminescent cell viability assay (Promega, Madison, Wis.) detected by the HT Envision System (PerkinElmer, Waltham, Mass.). The average viable cell numbers of each concentration in triplicates were used to calculate the IC50 of each compound with the GraphPad Prism 7 software. […]

HUVEC cells = assay: Growth of endothelial-derived primary cells (HUVEC); assay type: cell-based, human; conditions: within effective concentration range observed in VCaP, data not shown
Experimental: as §1, §2

T1 sequence (Q9BVS4 whole entry): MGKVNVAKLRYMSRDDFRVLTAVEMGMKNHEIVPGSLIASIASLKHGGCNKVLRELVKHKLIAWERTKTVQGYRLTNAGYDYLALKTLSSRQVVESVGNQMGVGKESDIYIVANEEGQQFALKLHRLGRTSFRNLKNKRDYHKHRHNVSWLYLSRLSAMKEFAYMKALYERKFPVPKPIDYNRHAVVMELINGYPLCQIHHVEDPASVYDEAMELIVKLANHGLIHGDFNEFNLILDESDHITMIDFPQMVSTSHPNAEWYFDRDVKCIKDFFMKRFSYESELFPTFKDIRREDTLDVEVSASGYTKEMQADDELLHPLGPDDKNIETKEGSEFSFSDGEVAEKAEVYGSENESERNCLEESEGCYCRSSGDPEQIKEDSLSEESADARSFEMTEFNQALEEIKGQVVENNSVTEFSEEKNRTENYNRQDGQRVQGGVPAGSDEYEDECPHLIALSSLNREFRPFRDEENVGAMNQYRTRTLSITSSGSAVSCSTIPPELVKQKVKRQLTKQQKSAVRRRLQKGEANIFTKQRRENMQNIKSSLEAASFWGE

CN(C)c1ccc(N=Nc2ccccn2)c(O)c1.CS(=O)(=O)O [Compound 2, 5-(dimethylamino)-2-(pyridin-2-yldiazenyl)phenol, methanesulfonic acid (1:1)]
effect on RIOK2 levels of endothelial-derived primary cells (RIOK2): did not effect | IC50 (VCaP cells): 0.089 µM | effect on growth of endothelial-derived primary cells (HUVEC cells): did not effect
